In PubChem BioAssay (NCI):
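All cell lines were grown in 96-well plates and treated with compound for 48 hours. Definition used: TGI = concentration required for complete inhibition of growth.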 Where a SMILES comes first, the peptide text is derived from it. The star is where a group is joined. Cbz = O=C(OCc1ccccc1)*

Columns and labels:
Experiment in all cases: NCI tumour cell line growth inhibition, 48 h
HL-60(TB) leukemia = tested on: HL-60(TB) leukemia
OVCAR-8 ovarian = tested on: OVCAR-8 ovarian
SF-295 CNS = tested on: SF-295 CNS
EKVX NSCLC = tested on: EKVX NSCLC
OVCAR-3 ovarian = tested on: OVCAR-3 ovarian
HCC-2998 colon = tested on: HCC-2998 colon
HOP-92 NSCLC = tested on: HOP-92 NSCLC
U251 CNS = tested on: U251 CNS
M14 melanoma = tested on: M14 melanoma
IGROV1 ovarian = tested on: IGROV1 ovarian
NCI-H226 lung = tested on: NCI-H226 lung
UACC-62 melanoma = tested on: UACC-62 melanoma
NCI-H23 lung = tested on: NCI-H23 lung
SNB-75 CNS = tested on: SNB-75 CNS
A498 renal = tested on: A498 renal
SN12C renal = tested on: SN12C renal
SNB-19 CNS = tested on: SNB-19 CNS
CCRF-CEM leukemia = tested on: CCRF-CEM leukemia
786-0 renal = tested on: 786-0 renal
COLO 205 colon = tested on: COLO 205 colon

Row | Compound | TGI (HL-60(TB) leukemia) [µM] | TGI (OVCAR-8 ovarian) [µM] | TGI (SF-295 CNS) [µM] | TGI (EKVX NSCLC) [µM] | TGI (OVCAR-3 ovarian) [µM] | TGI (HCC-2998 colon) [µM] | TGI (HOP-92 NSCLC) [µM] | TGI (U251 CNS) [µM] | TGI (M14 melanoma) [µM] | TGI (IGROV1 ovarian) [µM] | TGI (NCI-H226 lung) [µM] | TGI (UACC-62 melanoma) [µM] | TGI (NCI-H23 lung) [µM] | TGI (SNB-75 CNS) [µM] | TGI (A498 renal) [µM] | TGI (SN12C renal) [µM] | TGI (SNB-19 CNS) [µM] | TGI (CCRF-CEM leukemia) [µM] | TGI (786-0 renal) [µM] | TGI (COLO 205 colon) [µM]
1 | N#CC(C(=O)CCC(=O)Nc1cccc(C(F)(F)F)c1)c1ccccc1 (stereo unspecified) | > 100 | > 100 | > 100 | > 100 | > 100 | > 100 | > 100 | > 100 | > 100 | > 100 | > 100 | > 100 | > 100 | > 100 | > 100 | > 100 | > 100 | > 100 | > 100 | 
2 | CCOC(=O)C(NC(=O)c1cccc(Cl)c1)(Nc1ccc(S(=O)(=O)Nc2cc(C)nc(C)n2)cc1)C(F)(F)F (stereo unspecified) | > 100 | > 100 | > 100 | > 100 | > 100 | > 100 | > 100 | > 100 | > 100 | > 100 | > 100 |  | > 100 | > 100 | > 100 | > 100 | > 100 | > 100 | > 100 | > 100
3 | O=c1[nH]nc(CNc2ccc(Cl)cc2Cl)c2ccccc12 | > 100 |  | 44.7 | 85.7 | 40.3 | 44.5 | 80.1 | 37.9 | > 100 | 58.7 | 81.2 | > 100 |  | 60.8 | 33.7 | 97 | 60.7 | > 100 | 41.3 | > 100
4 | [N-]=[N+]=Nc1c(-c2ccccc2)c(=O)n(-c2ccccc2)c2ccccc12 | > 100 | > 100 | > 100 | 48.8 | > 100 | > 100 | > 100 | > 100 | > 100 | > 100 | > 100 | > 100 | > 100 | > 100 | > 100 | > 100 |  | > 100 | > 100 | > 100
5 | Cc1nc(C)c(N2CCN(S(N)(=O)=O)CC2)c(=O)[nH]1 | > 100 | > 100 | > 100 | > 100 | > 100 | > 100 | > 100 | > 100 | > 100 | > 100 | > 100 | > 100 | > 100 |  | > 100 | > 100 | > 100 | > 100 | > 100 | > 100
6 | CC(=O)C1C(=O)C(C(C)=O)C2C3C=CC(C3)C12 (stereo unspecified) | > 100 | > 100 | > 100 |  | > 100 | > 100 | > 100 | > 100 |  | > 100 | > 100 | > 100 | > 100 | > 100 | > 100 | > 100 | > 100 | > 100 | > 100 | > 100
7 | CCOC(=O)C(NC(=O)c1ccccc1)(c1ccc(S(=O)(=O)Nc2onc(C)c2C)cc1)C(F)(F)F (stereo unspecified) | > 100 | > 100 | > 100 | > 100 | > 100 | > 100 | > 100 | > 100 | > 100 | > 100 | > 100 | > 100 | > 100 | > 100 |  | > 100 | > 100 | > 100 | > 100 | > 100
8 | O=C1NC(=S)NC(=O)C1=CC1CC1 | > 100 | > 100 | > 100 | > 100 |  | > 100 | > 100 | > 100 | > 100 | > 100 | > 100 | > 100 | > 100 | > 100 | > 100 | > 100 | > 100 | > 100 | > 100 | > 100
9 | COC(=O)C(CC(C)C)NC(=O)C(CCCN=C(N)N)NC(=O)OCc1ccccc1 (stereo not drawn) (Cbz-Arg-Leu-OMe; configuration not given here) | > 100 | > 100 | > 100 | > 100 | > 100 | > 100 | > 100 | > 100 | > 100 | > 100 | > 100 | > 100 | > 100 | > 100 |  | > 100 | > 100 | > 100 | > 100 | > 100
10 | COC(=O)[C@@H]1C[C@]2(Br)c3ccccc3N(S(=O)(=O)c3ccccc3)[C@@H]2N1C(=O)OC | > 100 | > 100 |  | > 100 | > 100 | > 100 | > 100 | > 100 |  | > 100 | > 100 | > 100 | > 100 | > 100 | > 100 | > 100 | > 100 | > 100 | > 100 | 
11 | Oc1ccc(C2Oc3cc(O)cc4c3C2c2cc(O)cc3c2C(c2cc(O)cc5c2C4C(c2ccc(O)cc2)O5)C(c2ccc(O)cc2)O3)cc1 (stereo unspecified) | 14.1 | 22.8 |  | > 25 | > 25 | > 25 | 21.3 | > 25 | > 25 |  | 17.3 | > 25 | 22.9 | 15.5 | > 25 | > 25 | > 25 | > 25 | > 25 | > 25
12 | COCN1C(=N)C(C(=O)OC(C)(C)C)=C2C=C(O)C=CC21C (stereo unspecified) | 83.3 | 55.7 | > 100 | 37.9 |  | 40.5 | 17.4 | 30.6 | 29.5 | 28.2 | 30.6 | 29.1 | 30.2 | 33.6 | 36.9 | 73.9 | > 100 | 50.7 | 24.7 | 17.5
13 | CN1N=C2c3ccccc3OC(c3ccccc3)[C@H]2C1c1ccccc1 (stereo partly specified) | > 100 | > 100 | > 100 | > 100 | > 100 | > 100 | > 100 | > 100 | > 100 | > 100 | > 100 | > 100 | > 100 |  | > 100 | > 100 | > 100 | > 100 | > 100 | > 100
14 | COc1ccc(N/N=C/C2=CC(C)(C)C(C#N)(C#N)C(O)=C2C#N)cc1 | > 100 | > 100 | > 100 | > 100 | > 100 |  | 75.6 | > 100 | > 100 | > 100 | > 100 | > 100 | > 100 | > 100 | 81 | > 100 | > 100 | > 100 | > 100 | 49.8
15 | N#CC1(C#N)[C@@H]2CCC=C(Sc3ccccc3)[C@@H]21 | 49.9 | 31.2 | 32.8 | 35.4 | 31.1 | 32 | 30.7 | 30.1 | 26.5 | 39.8 | 36.3 | 37.6 |  | 47.2 | > 100 | 32.3 | 97.9 | 63.1 | 35.5 | 32
16 | COc1ccc2c(=O)c3c([nH]c2c1)OCC3=O | > 100 | > 100 | > 100 | > 100 |  | > 100 | > 100 | > 100 | > 100 | > 100 | > 100 | > 100 | > 100 | > 100 | > 100 |  | > 100 | > 100 | > 100 | > 100
17 | COc1ccc(/C=C2/SC(=Nc3ccccc3)N(NC(=O)Cc3ccccc3)C2=O)c(OC)c1 |  | > 100 | > 100 | > 100 | > 100 | > 100 | 67.4 | > 100 | > 100 | > 100 | > 100 | > 100 | > 100 | > 100 | > 100 | > 100 | > 100 | > 100 | > 100 | > 100
18 | C=CCCCN1CCCCC1=S | > 100 | > 100 | > 100 | > 100 | > 100 | > 100 | > 100 | > 100 | > 100 | > 100 | > 100 | > 100 | > 100 | > 100 |  | > 100 | > 100 | > 100 | > 100 | > 100
19 | CC(C)(CCl)NC(=O)c1cccc(C(=O)NC(C)(C)CCl)n1 | > 100 |  | > 100 | > 100 | > 100 | > 100 | > 100 | > 100 | > 100 | > 100 | > 100 |  | > 100 | > 100 | > 100 | > 100 | > 100 | > 100 | > 100 | > 100
20 | O=C(O)/C=C/c1ccc(OS(=O)(=O)O)cc1 | > 100 | > 100 | > 100 | > 100 | > 100 | > 100 | > 100 | > 100 | > 100 | > 100 | > 100 | > 100 | > 100 | > 100 | > 100 | > 100 | > 100 |  | > 100 | > 100
21 | COc1cccc(C=O)c1[O-].COc1cccc(C=O)c1[O-].[Zn+2] |  | > 100 | 68.1 | > 100 | 92.6 | > 100 | 83.6 | > 100 | > 100 | > 100 | > 100 | > 100 | > 100 | > 100 | > 100 | > 100 | > 100 | > 100 | > 100 | > 100
22 | Cc1ccc2nc(CN(CCO)CCO)cc(=O)n2c1 | > 100 | > 100 | > 100 | > 100 | > 100 | > 100 | > 100 | > 100 | > 100 | > 100 | > 100 | > 100 | > 100 | > 100 |  | > 100 | > 100 | > 100 | > 100 | > 100
23 | CN/N=C(\C(=O)Nc1ccc(C(F)(F)F)cc1[N+](=O)[O-])C(c1cnc2ccc([N+](=O)[O-])cc2n1)[N+](=O)[O-] (stereo unspecified) |  | > 100 | > 100 | 65.9 | > 100 | 84.8 | > 100 | > 100 | > 100 | > 100 | 78.5 |  | > 100 |  | > 100 | > 100 | > 100 | > 100 | > 100 | > 100
24 | CO/N=C(/C(=O)Nc1c[n+](CC(=O)[O-])cs1)c1csc(N)n1 | > 100 | > 100 | > 100 | > 100 | > 100 | > 100 | > 100 | > 100 | > 100 | > 100 | > 100 | > 100 | > 100 |  | > 100 | > 100 | > 100 | > 100 | > 100 | > 100
25 | CCCCc1nc(C)oc1C(C)C | > 100 | > 100 | > 100 | > 100 | > 100 | > 100 | > 100 | > 100 | > 100 | > 100 | > 100 | > 100 | > 100 | > 100 | > 100 | > 100 |  | > 100 | > 100 | > 100
